# According to US20240059747A1, “UBIQUITIN VARIANT WITH HIGH AFFINITY FOR BINDING 53BP1 REDUCES THE AMOUNT OF AAV NEEDED TO ACHIEVE HIGH RATES OF HDR” (Integrated DNA Technologies, Inc., priority 2022, published 2024):
# Columns and labels:
# HEK293 cells = assay: percent HDR by EcoR1 cleavage assay, Cas9 RNP nucleofection with AAV donor, HEK293 cells; assay type: cell-based; conditions: for dose dependence of HDR benefit: AAV donor at MOI 20,000, doses up to 200 μM
# Procedure: FIG. 1C depicts an exemplary heatmap showing the percent HDR at SERPINC1 in K562 cells with and without 50 uM CM1tf. […] The heatmaps show the percent HDR measured by EcoR1 cleavage assay with and without the use of CM1tf. Cas9 RNP (2 μM) was delivered with and without CM1tf into cells by Lonza nucleofection using 4 μM Alt-R Cas9 Electroporation Enhancer. AAV donor containing an EcoR1 cut site insert with 500 bp homology arms was added at a range of multiplicity of infection (MOIs) to cells for 24 hours following RNP delivery.
# FIG. 2B depicts an exemplary heatmap showing the percent HDR at SERPINC1 in HEK293 cells with no enhancer, CM1tf, V2, or CM1tf+V2. […] Cas9 RNP was co-delivered with and without CM1tf into cells by Lonza nucleofection with 2 μM Cas9 RNP, 4 μM Alt-R Cas9 Electroporation Enhancer, and 0 or 25 uM CM1tf. AAV donor containing an EcoR1 cut site insert with 500 bp homology arms was added at a range of MOIs to cells for 24 hours following RNP delivery. V2 enhancer was added to media at a 1 uM final concentration for 24 hours following nucleofection.
# The heatmaps show the percent HDR at STAT3 measured by EcoR1 cleavage assay with or without CM1tf. Cas9 RNP was co-delivered with and without CM1tf into cells by Lonza nucleofection with 2 μM Cas9 RNP, 4 μM Alt-R Cas9 Electroporation Enhancer, and 0 or 25 uM CM1tf. AAV donor containing 500 base pair (bp), 300 bp, or 100 bp homology arms was added at a range of MOIs to cells for 24 hours following RNP delivery.
# Cas9 RNP was co-delivered with and without CM1tf into cells by Lonza nucleofection with 2 μM Cas9 RNP, 4 μM Alt-R Cas9 Electroporation Enhancer, and range of CM1tf concentrations from 200 μM to 6.25 μM. AAV donor containing an EcoR1 cut site insert with 500 bp homology arms was added at an MOI of 20,000 to cells for 24 hours following RNP delivery.
# We developed at tag-free version of CM1 (CM1tf) and tested its ability to enhance HDR in cell lines using AAV donor (see Table 1). AAV-DJ, a synthetic AAV serotype most closely related to AAV-2 that is a chimera of type 2/type 8/ and type 9, was chosen for testing due to its high transduction efficiency in vitro for a broad range of cell types. The dose of CM1tf was held constant while a range of MOIs was used for the AAV donor. The AAV donor was constructed such that a 6 base pair insert consisting of an EcoR1 cut site (GAATTC) was flanked by 500 base pairs of homology arm matching the genomic sequence on either side of the target cut site. Briefly, Cas9 V3 protein (IDT) and Alt-R sgRNA (IDT) were mixed at a 1:1.2 ratio, incubated for 10 min, then Alt-R Cas9 electroporation enhancer (EE) (IDT), 1× PBS (Gibco), and CM1tf, diluted in 1× PBS, were added. HEK293 or K562 cells were washed and resuspended in SF buffer for Lonza Nucleofection and added to the RNP+DNA mix such that the final concentration of Cas9 RNP was 2 μM, EE was 4 μM, and CM1tf was 25 μM (HEK293 cells) or 50 μM (K562 cells). Cells plus RNP+DNA were electroporated using program DS-150 (HEK293 cells) or FF-120 (K562 cells) using the Lonza nucleofector system. Cells were then plated in 96 well plates at 20,000 cells/well and AAV was added to the wells at a range of MOI from 0 (no virus) to 160,000, with MOI being calculated as viral genomes (vg) per cell with vg calculated using qPCR. Cells were recovered and plated with serum free media, AAV was added, then serum containing media was added after four hours. Genomic DNA was isolated 48 hours after RNP delivery using QuickExtract (Lucigen).
# In order to optimize HDR, it is often desirable to use a combination of HDR enhancers that work by different mechanisms to further boost HDR rates beyond what can be achieved by any single enhancer alone.
# K562 cells = assay: percent HDR by EcoR1 cleavage assay, Cas9 RNP nucleofection with AAV donor, K562 cells; assay type: cell-based; conditions: 50 μM CM1tf, SERPINC1, AAV donor MOI range, FIG. 1C
# Procedure: FIG. 1C depicts an exemplary heatmap showing the percent HDR at SERPINC1 in K562 cells with and without 50 uM CM1tf. In FIG. 1A-C, the ubiquitin variant CM1tf boosts HDR when delivered with Cas9 RNP when an AAV vector is used to deliver the donor template. The heatmaps show the percent HDR measured by EcoR1 cleavage assay with and without the use of CM1tf. Cas9 RNP (2 μM) was delivered with and without CM1tf into cells by Lonza nucleofection using 4 μM Alt-R Cas9 Electroporation Enhancer. AAV donor containing an EcoR1 cut site insert with 500 bp homology arms was added at a range of multiplicity of infection (MOIs) to cells for 24 hours following RNP delivery.
# We developed at tag-free version of CM1 (CM1tf) and tested its ability to enhance HDR in cell lines using AAV donor (see Table 1). AAV-DJ, a synthetic AAV serotype most closely related to AAV-2 that is a chimera of type 2/type 8/ and type 9, was chosen for testing due to its high transduction efficiency in vitro for a broad range of cell types. The dose of CM1tf was held constant while a range of MOIs was used for the AAV donor. […] Cells were then plated in 96 well plates at 20,000 cells/well and AAV was added to the wells at a range of MOI from 0 (no virus) to 160,000, with MOI being calculated as viral genomes (vg) per cell with vg calculated using qPCR. […]
# HDR [1] = conditions: ssDNA donor; previous testing; cited from earlier work
# 53BP1 foci = conditions: introduced into cells; cited from earlier work
# HDR [2] = conditions: plasmid, AAV mediated gene delivery or mRNA delivery; double-stranded and single-stranded DNA donors; cited from earlier work
Substance,"improvement in HDR rates, single enhancers and combination (HEK293 cells; 25 uM CM1tf, 1 μM V2 enhancer in media for 24 hours, AAV donor MOI range, HPRT1 and SERPINC1, FIG. 2)","boost of HDR rates (HEK293 cells; 25 μM CM1tf, AAV-DJ donor with 500 bp homology arms, MOI 0 to 160,000, HPRT1 and SERPINC1, FIG. 1A-B)","HDR boost compared with i53 (HEK293 cells; AAV donor at MOI 20,000, doses 6.25 to 200 μM, FIG. 4)",dose dependence of HDR benefit (HEK293 cells; FIG. 4),"less AAV needed to achieve the same level of editing as without enhancer (HEK293 cells; HEK293 cells, 25 μM CM1tf, AAV donor MOI range)",boost of HDR (K562 cells),benefit to HDR as a function of dose (HDR [1]),optimal concentration for HDR benefit (HDR [1]),formation of ionizing radiation induced 53BP1 foci (53BP1 foci),rates of HDR (HDR [2])
"CM1tf: tag-free version of ubiquitin variant CM1, SEQ ID NO: 3; K6R, T7M, T12M, T14E, K33H, A46Q, S65P, L67K, H68M relative to i53",approximately equivalent improvement in HDR rates,dramatically boosted HDR rates,continued to outperform i53,slightly larger benefit to HDR with increasing dose,approximately four-fold,boosts HDR,,,,
"i53: ubiquitin variant inhibitor of 53BP1 (Canny et al.), SEQ ID NO: 1",,,,large performance increase going from 100 μM to 200 μM,,,decrease in benefit at 200 μM,100 to 150 µM,inhibited the formation ionizing radiation induced 53BP1 foci,improve the rates of HDR
